Measured values taken from patent US10906880B2, “Kind of isothiazole oxime ether-containing strobilurin derivatives and its preparation methods and application” (priority 2016, dated 2021).
Several values for one entry are separate records, joined by “and”; a condition that tells them apart may be missing. Equal entries are not always repeated. Where two headings read alike, the source gives them in different places.

Tests used:
TMV [1] = experiment: Anti-TMV activity on tobacco, induction mode (systemic acquired resistance); assay type: in vivo, tobacco mosaic virus; details: 100 μg/mL; for inhibition at 100 µg/mL: Tobacco mosaic virus, read-out: Anti-TMV activity inhibition, Induction effect
TMV [2] = experiment: Anti-TMV activity on tobacco, protection mode; assay type: in vivo, tobacco mosaic virus; details: 100 μg/mL; for inhibition at 100 µg/mL: Tobacco mosaic virus, read-out: Anti-TMV activity inhibition, Protection effect
Gibberella zeae = experiment: microbe, parasite or virus in culture; assay type: cell-based; details: for Fungicidal activity inhibition, GZ: 50 μg/mL, G. zeae; for inhibition at 50 µg/mL: Fusarium graminearum, read-out: Fungicidal activity inhibition, GZ, 50 μg/mL, G. zeae
TMV [3] = experiment: Anti-TMV activity on tobacco, inactivation mode; assay type: in vivo, tobacco mosaic virus; details: 100 μg/mL; for inhibition at 100 µg/mL: Tobacco mosaic virus, read-out: Anti-TMV activity inhibition, Inactivation effect
TMV [4] = experiment: Anti-TMV activity on tobacco, curative mode; assay type: in vivo, tobacco mosaic virus; details: 100 μg/mL, tobacco; for inhibition at 100 µg/mL: Tobacco mosaic virus, read-out: Anti-TMV activity inhibition, Curative effect
Physalospora piricola = experiment: Fungicide activity, mycelial growth inhibition on PDA plate; assay type: cell-based; details: 50 μg/mL, P. piricola; read-out: Fungicidal activity inhibition, PP
[5] = tested on: Phytophthora infestans (Mont) de Bary; experiment: microbe, parasite or virus in culture; assay type: cell-based; details: for Fungicidal activity inhibition, PI: 50 μg/mL, P. infestans (Mont.) de Bary; for inhibition at 50 µg/mL: Phytophthora infestans, read-out: Fungicidal activity inhibition, PI, 50 μg/mL, P. infestans (Mont.) de Bary
Sclerotinia sclerotiorum = experiment: Fungicide activity, mycelial growth inhibition on PDA plate; assay type: cell-based; details: Sclerotinia sclerotiorum, read-out: Fungicidal activity inhibition, SS
Pellicularia sasakii = experiment: as above; assay type: cell-based; details: 50 μg/mL, P. sasakii; read-out: Fungicidal activity inhibition, PS
Alternaria solani = experiment: as above; assay type: cell-based; details: Alternaria solani, read-out: Fungicidal activity inhibition, AS
Cercospora arachidicola = experiment: as above; assay type: cell-based; details: Mycosphaerella arachidis, read-out: Fungicidal activity inhibition, CA
Botrytis cinerea = experiment: as above; assay type: cell-based; details: Botrytis cinerea, read-out: Fungicidal activity inhibition, BC
Rhizoctonia cerealis = experiment: as above; assay type: cell-based; details: Ceratobasidium cereale, read-out: Fungicidal activity inhibition, RC

Row | SMILES | inhibition at 100 µg/mL (TMV [1]) [%] | inhibition at 100 µg/mL (TMV [2]) [%] | Fungicidal activity inhibition, GZ (Gibberella zeae) | inhibition at 100 µg/mL (TMV [3]) [%] | inhibition at 100 µg/mL (TMV [4]) [%] | inhibition at 50 µg/mL (Physalospora piricola) [%] | melting point [°C] | Fungicidal activity inhibition, PI [5] [%] | inhibition at 50 µg/mL (Sclerotinia sclerotiorum; 50 μg/mL, S. sclerotiorum) [%] | inhibition at 50 µg/mL (Pellicularia sasakii) [%] | inhibition at 50 µg/mL (Alternaria solani; 50 μg/mL, A. solani) [%] | inhibition at 50 µg/mL (Alternaria solani) [%] | inhibition at 50 µg/mL (Cercospora arachidicola; 50 μg/mL, C. arachidicola) [%] | inhibition at 50 µg/mL (Botrytis cinerea; 50 μg/mL, B. cinerea) [%] | inhibition at 50 µg/mL (Rhizoctonia cerealis; 50 μg/mL, R. cerealis) [%] | inhibition at 50 µg/mL (Gibberella zeae) [%] | inhibition at 50 µg/mL [5] [%] | inhibition at 50 µg/mL (Sclerotinia sclerotiorum) [%] | inhibition at 50 µg/mL (Botrytis cinerea) [%] | inhibition at 50 µg/mL (Rhizoctonia cerealis) [%] | also measured
1 | CNC(=O)/C(=N/OC)c1cc(C)c(C)cc1CO/N=C(\C)c1cc(Cl)ns1 [CL04-00, reference compound] | 20.3 ± 2.16 | 26.3 ± 2.47 | 29.63% and 50.00% | 20.7 ± 2.1 | 27.3 ± 1.24 | – | – | – | – | – | – | – | – | – | – | – | – | – | – | – | Anti-TMV activity inhibition, Induction effect (TMV [1]): 19.34 ± 1.14%; Anti-TMV activity inhibition, Protection effect (TMV [2]): 25.30 ± 1.47%; Anti-TMV activity inhibition, Inactivation effect (TMV [3]): 19.68 ± 1.10%; Anti-TMV activity inhibition, Curative effect (TMV [4]): 26.39 ± 1.22%
2 | CNC(=O)/C(=N/OC)c1ccccc1CO/N=C(\C)c1snc(Cl)c1Cl [CL04-22D] | – | > 40 | 100% | 4.44 ± 0.85 | 32.8 ± 3.36 | 80.8 | 79 to 81 | 100 | 100 | 89.2 | 47.5 | > 30 | 87.5 | 100 | 100 | – | – | – | – | – | –
3 | CO/N=C(/C(=O)N[C@@H](C)CSC)c1ccccc1CO/N=C(\C)c1snc(Cl)c1Cl [CL04-22F] | – | 23.8 ± 3.42 | – | 0 | 1.52 ± 0.62 | 32.8 | 35 to 37 | – | 52.9 | 15.2 | 16.4 | – | 12.5 | 45.5 | 76 | > 30 | 17.1 | > 40 | > 45 | > 50 | –
4 | CO/N=C(/C(=O)NCC(F)F)c1ccccc1CO/N=C(\N)c1snc(Cl)c1Cl [CL04-24] | > 30 | 36.8 ± 5.5 | – | 27.3 ± 6.56 | 15 ± 3.08 | 39.5 | 118 to 120 | – | 52.9 | 24.2 | 12.7 | – | 16.7 | 37.5 | 62 | > 30 | 22.9 | – | – | > 50 | –
5 | CNC(=O)/C(=N/OC)c1ccccc1CO/N=C(\N)c1snc(Cl)c1Cl [CL04-25C] | – | > 40 | 100% | 0 | 14.7 ± 4.84 | 40.4 | 122 to 124 | 100 | 66.7 | 83.8 | 34.4 | > 30 | 44 | 57.9 | 100 | – | – | > 40 | > 45 | – | inhibition at 50 µg/mL (Cercospora arachidicola): > 30%
6 | CO/N=C(/C(=O)NC(C)(C)CSC)c1ccccc1CO/N=C(\N)c1snc(Cl)c1Cl [CL04-25D] | 21.1 ± 3.69 | 21.1 ± 1.69 | – | 0 | > 30 | 27.7 | 28 to 30 | – | 52.9 | 15.2 | 16.4 | – | 12.5 | 39.3 | 62 | 21.2 | 17.1 | > 40 | – | – | –
7 | CO/N=C(/C(=O)N[C@@H](C)CSC)c1ccccc1CO/N=C(\N)c1snc(Cl)c1Cl [CL04-25E] | 16 ± 7.71 | 26 ± 4.71 | – | 0 | 19.1 ± 6.56 | 10.9 | – | – | 52.9 | 21.2 | 9.09 | – | 16.7 | 35.7 | 54 | > 30 | 11.4 | > 40 | – | > 50 | –
8 | CO/N=C(/C(=O)NCC(F)F)c1ccccc1CO/N=C(C)/C=C/c1snc(Cl)c1Cl [CL04-32A] | > 30 | > 40 | – | > 30 | 1.52 ± 0.62 | 29.8 | 98 to 100 | – | 53.3 | 35.1 | 34.4 | > 30 | 36 | 52.6 | 85.4 | > 30 | – | > 40 | > 45 | > 50 | inhibition at 50 µg/mL (Cercospora arachidicola): > 30%
9 | CNC(=O)/C(=N/OC)c1ccccc1CO/N=C(C)/C=C/c1snc(Cl)c1Cl [CL04-32D] | > 30 | 39.1 ± 2.73 | 100% | – | 1.52 ± 0.62 | 64.9 | 137 to 139 | 100 | 73.3 | 89.2 | 54.1 | > 30 | 84 | 84.2 | 85.4 | – | – | > 40 | > 45 | > 50 | –
10 | CO/N=C(/C(=O)NC(C)(C)CSC)c1ccccc1CO/N=C(C)/C=C/c1snc(Cl)c1Cl [CL04-32E] | > 70 | > 40 | – | 13.7 ± 0.55 | 1.52 ± 0.62 | 39.5 | – | – | 41.2 | 15.2 | 5.45 | – | 12.5 | 32.1 | 58 | 24.2 | 11.4 | – | – | – | –
